Tested on: pentobarbital-induced sleep
Experiment: Loss Of Righting Reflex (LORR) test, pentobarbital-induced sleep in mice
Assay type: in vivo, mouse (7-week-old male Balb/C mice)
[1] = LORR test, IP treatment 30 min before pentobarbital 30 or 40 mg/kg IP, diazepam 3 mg/kg

Structure (SMILES): CN1C(=O)CN=C(c2ccccc2)c2cc(Cl)ccc21 [diazepam]
- percentage of mice in treatment group that fell asleep after pentobarbital administration (Example 1, FIG. 3): 92%
- percentage of subjects with a transient awakening (woke up once) during the sleep session (Example 1, FIG. 4): 25%
- percentage of subjects with no transient awakenings during the sleep session (Example 1, FIG. 4): 75%
- percentage of mice in treatment group that fell asleep after pentobarbital administration (response rate) (Example 2, FIG. 7): 86%
- mean sleep duration [1]: 60 to 90 min
- mean sleep onset [1]: 3 to 5 min

Reference: US20230087359A1, “CANNABINOID COMPOSITIONS AND METHODS OF USE THEREOF” (DAY THREE LABS MAN[…]., priority 2017, published 2023)
